Results reported in patent publication US9580409B2, “Modulators of opioid receptors and methods of use thereof” (priority 2011, dated 2017).

Target: mu-opioid receptor (Homo sapiens, UniProt P35372)
Assay: biochemical
Conditions: […]; class symbol combines EC50 and efficacy; read-out: GTP Activity

mu-opioid receptor, sequence (P35372 whole entry, species assumed): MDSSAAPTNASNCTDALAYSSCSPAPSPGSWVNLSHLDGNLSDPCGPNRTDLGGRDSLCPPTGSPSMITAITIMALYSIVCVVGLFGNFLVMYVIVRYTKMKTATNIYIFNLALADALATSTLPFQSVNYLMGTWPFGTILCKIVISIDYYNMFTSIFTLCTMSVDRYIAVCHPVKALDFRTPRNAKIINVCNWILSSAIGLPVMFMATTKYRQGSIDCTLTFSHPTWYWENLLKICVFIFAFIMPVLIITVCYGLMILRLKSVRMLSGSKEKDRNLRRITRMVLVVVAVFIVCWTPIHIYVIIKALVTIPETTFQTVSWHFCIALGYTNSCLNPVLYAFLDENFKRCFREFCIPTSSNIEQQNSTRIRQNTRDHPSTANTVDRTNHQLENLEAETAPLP

SMILES	EC50 [nM]
CNC1=C(c2nc3ccccc3[nH]2)C(=O)[C@@](C)(CO)N1c1cc(OC)cc(OC)c1 [compound 211]	100 to 1000
CNC1=C(c2nc3ccccc3[nH]2)C(=O)[C@](C)(CO)N1c1cc(OC)cc(OC)c1 [compound 212]	< 100
COc1cc(OC)cc(N2C(N)=C(c3nc4ccccc4[nH]3)C(=O)C2(C)CCO)c1 (centres unmarked) [compound 216]	100 to 1000
CNC1=C(c2nc3ccccc3[nH]2)C(=O)C(C)(CCO)N1c1cc(OC)cc(OC)c1 (centres unmarked) [compound 217]	< 100
COCCC1(C)C(=O)C(c2nc3ccccc3[nH]2)=C(N)N1c1cc(OC)cc(OC)c1 (centres unmarked) [compound 219]	100 to 1000
CNC1=C(c2nc3ccccc3[nH]2)C(=O)C(C)(CCOC)N1c1cc(OC)cc(OC)c1 (centres unmarked) [compound 220]	< 100
COc1cc(OC)cc(N2C(N)=C(c3nc4ccccc4[nH]3)C(=O)C2CCCO)c1 (centres unmarked) [compound 221]	100 to 1000
COc1cc(OC)cc(N2C(N)=C(c3nc4ccccc4[nH]3)C(=O)C2CCN(C)C)c1 (centres unmarked) [compound 222]	1000 to 10000
COc1cc(OC)cc(N2C(N)=C(c3nc4ccccc4[nH]3)C(=O)C2CCCCO)c1 (centres unmarked) [compound 223]	100 to 1000
COc1cc(OC)cc(N2C(N)=C(c3nc4ccccc4[nH]3)C(=O)C23CCOCC3)c1 [compound 224]	100 to 1000
CNC1=C(c2nc3ccccc3[nH]2)C(=O)C2(CCOCC2)N1c1cc(OC)cc(OC)c1 [compound 226]	100 to 1000
COc1cc(OC)cc(N2C(N)=C(c3nc4ccccc4[nH]3)C(=O)C2CCc2ccccc2)c1 (centres unmarked) [compound 229]	1000 to 10000
COc1cc(OC)cc(N2C(N)=C(c3nc4ccccc4[nH]3)C(=O)C2CCOc2ccccc2)c1 (centres unmarked) [compound 231]	1000 to 10000
COc1cc(OC)cc(N2C(N)=C(c3nc4ccccc4[nH]3)C(=O)C2CCNc2ccccc2)c1 (centres unmarked) [compound 232]	100 to 1000
COc1cc(OC)cc(N2C(N)=C(c3nc4ccccc4[nH]3)C(=O)C2CCN2CCOCC2)c1 (centres unmarked) [compound 234]	100 to 1000
COc1cc(OC)cc(N2C(N)=C(c3nc4ccccc4[nH]3)C(=O)C2CCN2CCCC2)c1 (centres unmarked) [compound 237]	1000 to 10000
COc1cc(OC)cc(N2C(N)=C(c3nc4ccccc4[nH]3)C(=O)C2CCN)c1 (centres unmarked) [compound 238]	1000 to 10000
COc1cc(OC)cc(N2C(N)=C(c3nc4ccccc4[nH]3)C(=O)C2CCn2ccnc2)c1 (centres unmarked) [compound 239]	100 to 1000
COc1cc(OC)cc(N2C(N)=C(c3nc4ccccc4[nH]3)C(=O)[C@H]2CCO)c1 [compound 241]	100 to 1000
COc1cc(OC)cc(N2C(N)=C(c3nc4ccccc4[nH]3)C(=O)C2CC(=O)O)c1 (centres unmarked) [compound 244]	1000 to 10000
CNC(=O)CC1C(=O)C(c2nc3ccccc3[nH]2)=C(N)N1c1cc(OC)cc(OC)c1 (centres unmarked) [compound 246]	1000 to 10000
COc1cc(OC)cc(N2C(N)=C(c3nc4ccccc4[nH]3)C(=O)C23CN(C(C)=O)C3)c1 [compound 248]	100 to 1000
CCC(=O)N1CC2(C1)C(=O)C(c1nc3ccccc3[nH]1)=C(N)N2c1cc(OC)cc(OC)c1 [compound 249]	1000 to 10000
COc1cc(OC)cc(N2C(N)=C(c3nc4ccccc4[nH]3)C(=O)C23CN(C(=O)c2ccccc2)C3)c1 [compound 250]	1000 to 10000
COc1cc(OC)cc(N2C(N)=C(c3nc4ccccc4[nH]3)C(=O)C23CN(S(C)(=O)=O)C3)c1 [compound 251]	100 to 1000

SMILES	EC50 [nM]
CNC1=C(c2nc3ccccc3[nH]2)C(=O)C(CCN)N1c1cc(OC)cc(OC)c1 (centres unmarked) [compound 253]	100 to 1000
COc1cc(OC)cc(N2C(N)=C(c3nc4ccccc4[nH]3)C(=O)C2CCN(C)C(C)=O)c1 (centres unmarked) [compound 256]	100 to 1000
COc1cc(OC)cc(N2C(N)=C(c3nc4ccccc4[nH]3)C(=O)C2CCN(C)C(=O)c2ccccc2)c1 (centres unmarked) [compound 257]	100 to 1000
COc1cc(OC)cc(N2C(N)=C(c3nc4ccccc4[nH]3)C(=O)[C@]23C[C@H](O)C3)c1 [compound 258]	100 to 1000
CNC1=C(c2nc3ccccc3[nH]2)C(=O)C2(CC(O)C2)N1c1cc(OC)cc(OC)c1 (centres unmarked) [compound 259]	< 100
CNC1=C(c2nc3ccccc3[nH]2)C(=O)[C@]2(C[C@H](O)C2)N1c1cc(OC)cc(OC)c1 [compound 260]	100 to 1000
CNC1=C(c2nc3ccccc3[nH]2)C(=O)[C@@](C)(CCO)N1c1cc(OC)cc(OC)c1 [compound 261]	100 to 1000
CNC1=C(c2nc3ccccc3[nH]2)C(=O)[C@](C)(CCO)N1c1cc(OC)cc(OC)c1 [compound 262]	< 100
CNC1=C(c2nc3ccccc3[nH]2)C(=O)C(CO)(CO)N1c1cc(OC)cc(OC)c1 [compound 263]	100 to 1000
CNC1=C(c2nc3ccccc3[nH]2)C(=O)C(CO)(CCl)N1c1cc(OC)cc(OC)c1 (centres unmarked) [compound 264]	100 to 1000
CNc1c(-c2nc3ccccc3[nH]2)c(=O)n(CCO)n1-c1cc(OC)cc(OC)c1 [compound 265]	100 to 1000
CNc1c(-c2nc3ccccc3[nH]2)c(=O)n(CCOC)n1-c1cc(OC)cc(OC)c1 [compound 266]	< 100
CNc1c(-c2nc3ccccc3[nH]2)c(=O)n(CCCO)n1-c1cc(OC)cc(OC)c1 [compound 267]	< 100
CNc1c(-c2nc3ccccc3[nH]2)c(=O)n(C2CCC2)n1-c1cc(OC)cc(OC)c1 [compound 269]	100 to 1000
CNc1c(-c2nc3ccccc3[nH]2)c(=O)n(C2COC2)n1-c1cc(OC)cc(OC)c1 [compound 270]	< 100
CNc1c(-c2nc3ccccc3[nH]2)c(=O)n(CCNC(C)=O)n1-c1cc(OC)cc(OC)c1 [compound 271]	100 to 1000
CNC1=C(c2nc3ccccc3[nH]2)C(=O)C2(CCCN(C(C)=O)C2)N1c1cc(OC)cc(OC)c1 (centres unmarked) [compound 273]	100 to 1000
CNC1=C(c2nc3ccccc3[nH]2)C(=O)C2(CNC(=O)C2)N1c1cc(OC)cc(OC)c1 (centres unmarked) [compound 274]	100 to 1000
CNC1=C(c2nc3ccccc3[nH]2)C(=O)C2(CC(=O)C2)N1c1cc(OC)cc(OC)c1 [compound 275]	< 100
CNC1=C(c2nc3ccccc3[nH]2)C(=O)C(C)(CC(C)=O)N1c1cc(OC)cc(OC)c1 (centres unmarked) [compound 276]	100 to 1000
CNC1=C(c2nc3ccccc3[nH]2)C(=O)C(C)(C(C)=O)N1c1cc(OC)cc(OC)c1 (centres unmarked) [compound 277]	100 to 1000
CNC1=C(c2nc3ccccc3[nH]2)C(=O)C(C)(c2ccco2)N1c1cc(OC)cc(OC)c1 (centres unmarked) [compound 278]	100 to 1000
CNC1=C(c2nc3ccccc3[nH]2)C(=O)C(C(C)=O)N1c1cc(OC)cc(OC)c1 (centres unmarked) [compound 279]	< 100
CNC1=C(c2nc3ccccc3[nH]2)C(=O)C(C)(Cc2ccco2)N1c1cc(OC)cc(OC)c1 (centres unmarked) [compound 280]	100 to 1000
CNC1=C(c2nc3ccccc3[nH]2)C(=O)C(C)(CNC(=O)COC)N1c1cc(OC)cc(OC)c1 (centres unmarked) [compound 283]	< 100

SMILES	EC50 [nM]
CNC1=C(c2nc3ccccc3[nH]2)C(=O)C(C)(CCNC(C)=O)N1c1cc(OC)cc(OC)c1 (centres unmarked) [compound 284]	< 100
CNC1=C(c2nc3ccccc3[nH]2)C(=O)C(C)(CCNC(=O)COC)N1c1cc(OC)cc(OC)c1 (centres unmarked) [compound 286]	< 100
CNC1=C(c2nc3ccccc3[nH]2)C(=O)C(CNC(=O)COC)N1c1cc(OC)cc(OC)c1 (centres unmarked) [compound 289]	< 100
COc1cc(OC)cc(N2C(N)=C(c3nc4ccccc4[nH]3)C(=O)C23CCCNC3)c1 (centres unmarked) [compound 293]	1000 to 10000
COc1cc(OC)cc(N2C(N)=C(c3nc4ccccc4[nH]3)C(=O)C23CCCN(C(C)=O)C3)c1 (centres unmarked) [compound 294]	1000 to 10000
COc1cc(OC)cc(N2C(N)=C(c3nc4ccccc4[nH]3)C(=O)C23CCCOC3)c1 (centres unmarked) [compound 295]	100 to 1000
COCC1(C)C(=O)C(c2nc3ccccc3[nH]2)=C(N)N1c1cc(OC)cc(OC)c1 (centres unmarked) [compound 296]	100 to 1000
CNC1=C(c2nc3ccccc3[nH]2)C(=O)[C@](C)(COC)N1c1cc(OC)cc(OC)c1 [compound 297]	100 to 1000
CNC1=C(c2nc3ccccc3[nH]2)C(=O)[C@@](C)(COC)N1c1cc(OC)cc(OC)c1 [compound 298]	< 100
CNC1=C(c2nc3ccccc3[nH]2)C(=O)[C@](C)(CCOC)N1c1cc(OC)cc(OC)c1 [compound 299]	100 to 1000
CNC1=C(c2nc3ccccc3[nH]2)C(=O)[C@@](C)(CCOC)N1c1cc(OC)cc(OC)c1 [compound 300]	< 100
COc1cc(OC)cc(N2C(N)=C(c3nc4ccccc4[nH]3)C(=O)[C@]2(C)CCNC(C)=O)c1 [compound 301]	100 to 1000
COc1cc(OC)cc(N2C(N)=C(c3nc4ccccc4[nH]3)C(=O)[C@@]2(C)CCNC(C)=O)c1 [compound 302]	100 to 1000
CNC1=C(c2nc3ccccc3[nH]2)C(=O)[C@@](C)(CCNC(C)=O)N1c1cc(OC)cc(OC)c1 [compound 304]	< 100
CNC1=C(c2nc3ccccc3[nH]2)C(=O)[C@@]2(CCCOC2)N1c1cc(OC)cc(OC)c1 [compound 306]	100 to 1000
CNC1=C(c2nc3ccccc3[nH]2)C(=O)C(C)(CC(C)O)N1c1cc(OC)cc(OC)c1 (centres unmarked) [compound 309]	< 100
CNC1=C(c2nc3ccccc3[nH]2)C(=O)C2(CCC(O)C2)N1c1cc(OC)cc(OC)c1 (centres unmarked) [compound 311]	< 100
CNC1=C(c2nc3ccccc3[nH]2)C(=O)C2(CCC(=O)C2)N1c1cc(OC)cc(OC)c1 (centres unmarked) [compound 312]	< 100
CCOC(=O)C1CC2(CC1=O)C(=O)C(c1nc3ccccc3[nH]1)=C(N)N2c1cc(OC)cc(OC)c1 (centres unmarked) [compound 313]	1000 to 10000
[2H]C1CC2(CC1=O)C(=O)C(c1nc3ccccc3[nH]1)=C(NC)N2c1cc(OC)cc(OC)c1 (centres unmarked) [compound 314]	< 100
CNC1=C(c2nc3ccccc3[nH]2)C(=O)[C@H](CNC(=O)COC)N1c1cc(OC)cc(OC)c1 [compound 315]	< 100
CNC1=C(c2nc3ccccc3[nH]2)C(=O)[C@@H](CNC(=O)COC)N1c1cc(OC)cc(OC)c1 [compound 316]	< 100
CNC1=C(c2nc3ccccc3[nH]2)C(=O)[C@](C)(CNC(=O)COC)N1c1cc(OC)cc(OC)c1 [compound 317]	100 to 1000
CNC1=C(c2nc3ccccc3[nH]2)C(=O)[C@@](C)(CNC(=O)COC)N1c1cc(OC)cc(OC)c1 [compound 318]	< 100
